Measurements from US7192979B2, “EP4 receptor selective agonist in the treatment of osteoporosis” (Pfizer Inc., priority 2000, dated 2007).

Key:
[1] = tested on: 293S cells transfected with EP2; assay: Kidney regeneration assay: induction of BMP-7 expression (Northern blot) in EP2 293S cells; format: cell-based, human; conditions: 10^-6M, RNA at 8, 16 and 24 hours, time dependent
Description: (§1) The role of a prostaglandin agonist in kidney regeneration is investigated by the ability of Prostaglandin E2 (PGE2) or a prostaglandin agonist to induce the expression of Bone Morphogenetic Protein 7 (BMP-7) in wild type 293S cells and in 293S cells transfected with EP2.
(§2) Methods: 293S and EP2 293S cells are grown in Dulbecco's Modified Egale medium (DMEM, Gibco, BRL; Gaithersburg, Md.). One day prior to treatment with PGE2 or a prostaglandin agonist, cells are plated at a density of 1.5×10^6 cells/10 cm dish. Generally about 16 to 24 hours later the cell monolayer is washed once with OptiMEM (Gibco, BRL; Gaithersburg, Md.) followed by the addition of 10 ml OptiMEM/dish in the presence and absense of vehicle (DMSO), PGE2 (10^−6M) or a prostaglandin agonist (10^−6M). Cells are harvested and RNA is extracted at 8, 16 and 24 hours. Northern blot analysis of total RNA ([…]) is carried out by probing the blots with ^32P-labeled BMP-7 probe. The blots are normalized for RNA loading by hybridization with ^32P-labeled 18s ribosomal RNA probe. […] Given the known role of BMP-7 in kidney regeneration and the ability of an prostaglandin agonist to induce BMP-7 expression in 293S kidney cells in a time and receptor specific manner indicates a role for prostaglandin agonist in kidney regeneration.

wild type 293S cells = assay: Kidney regeneration assay: induction of BMP-7 expression (Northern blot) in wild type 293S cells; format: cell-based, human; conditions: parental (wild type) 293S cell line; 10^-6M; 8, 16 and 24 hours
Description: as §1, §2

[2] = tested on: ovariectomized (OVX) rat model; conditions: model for postmenopausal osteoporosis, Ke et al., Bone 23:249-255, 1998; cited from earlier work

SMILES: CCCCC[C@H](O)/C=C/[C@H]1[C@H](O)CC(=O)[C@@H]1C/C=C\CCCC(=O)O [PGE2, prostaglandin E2]
- expression of Bone Morphogenetic Protein 7 (BMP-7) [1]: induce the expression of BMP-7
- expression of Bone Morphogenetic Protein 7 (BMP-7) (wild type 293S cells): generally not observed
- restoration of lost bone [2]: can restore lost bone
